Columns and labels:
mHTT = test: Mutant and total HTT multiplex HTRF assay in Q48 HTT human embryonic stem cell line: mHTT; format: cell-based; conditions: Q48 HTT hESC, 48 hours
Experimental: (§1) The multiplex assay is performed in human embryonic stem cells (hESCs) which have been derived by Genea Biocells from human blastocysts of HD donors. Cells are plated at a density of 10,000 cells/well into 384-well collagen coated plates and left to adhere for 24 hours, compounds 1 to 82 are then added to cells and incubated for 48 hours (37° C., 5% CO2), cells are then lysed and the contents split into a black 384-well plate.
(§2) The black plates have a combination of HTRF labeled monoclonal antibodies added which recognize discrete areas of the HTT protein, the 2B7-Tb “donor” antibody (0.2 ng/well) recognizes a sequence at the N-terminus of the protein, an MW1-Alexa488 “acceptor 1” antibody (30 ng/well) recognizes an area in the polyQ region, whereas a MAB2166-d2 “acceptor 2” antibody (6 ng/well) recognizes a sequence beyond the polyQ region. The 2B7 antibody was obtained from Coriell (CH02024), the MW1 antibody from Millipore (MABN2427), and the MAB2166 antibody from Millipore (1HU-4C8).
(§3) These detection reagents are incubated with the cell lysate at room temperature for 4-6 hours before having their fluorescence quantified at 615 nm (donor) and 535 nm and 665 nm (acceptor 1 and 2 respectively). The donor/acceptor ratio between these signals indicates the relative quantities of mHTT and tHTT proteins. As shown in the Table 1, compounds 1 to 82 as described therein and in Table 2, had the following pIC50 values.

tHTT = test: Mutant and total HTT multiplex HTRF assay in Q48 HTT human embryonic stem cell line: tHTT; format: cell-based; conditions: Q48 HTT hESC, 48 hours
Experimental: as §1, §2, §3

| SMILES | Rating (based on mHTT potency) (mHTT) | mHTT pIC50 (mHTT) | tHTT pIC50 (tHTT) |
| --- | --- | --- | --- |
| CN(c1nnc(-c2c(F)cc(-c3cn[nH]c3)cc2F)s1)C1CC(C)(C)NC(C)(C)C1 [Compound 45, 5-(2,6-difluoro-4-(1H-pyrazol-4-yl)phenyl)-N-methyl-N-(2,2,6,6-tetramethylpiperidin-4-yl)-1,3,4-thiadiazol-2-amine] | *** (a pIC50 value between 6.5 and 7.0 is indicated by three stars (***)) | 6.861 | 6.7715 |
| Cc1cnc2cc(O)c(-c3ccc(N(C)C4CC(C)(C)NC(C)(C)C4)nn3)cc2n1 [Compound 46, 2-methyl-7-(6-(methyl(2,2,6,6-tetramethylpiperidin-4-yl)amino)pyridazin-3-yl)quinoxalin-6-ol] | *** (a pIC50 value between 6.5 and 7.0 is indicated by three stars (***)) | 6.8485 | 6.778 |
| Cc1ccc2cc(-c3ccc(N(C)C4CC(C)(C)NC(C)(C)C4)nn3)c(O)cc2n1 [Compound 47, 2-methyl-6-(6-(methyl(2,2,6,6-tetramethylpiperidin-4-yl)amino)pyridazin-3-yl)quinolin-7-ol] | *** (a pIC50 value between 6.5 and 7.0 is indicated by three stars (***)) | 6.8415 | 6.92 |
| CC1(C)CC(Nc2ccc(-c3cc4cc(C#N)ccc4s3)nn2)CC(C)(C)N1 [Compound 48, 2-(6-(2,2,6,6-tetramethylpiperidin-4-ylamino)pyridazin-3-yl)benzo[b]thiophene-5-carbonitrile] | *** (a pIC50 value between 6.5 and 7.0 is indicated by three stars (***)) | 6.822 | 6.9 |
| CN(c1nnc(-c2ccc(-c3ccn(C)c(=O)c3)cc2O)s1)C1CC(C)(C)NC(C)(C)C1 [Compound 49, 4-(3-hydroxy-4-(5-(methyl(2,2,6,6-tetramethylpiperidin-4-yl)amino)-1,3,4-thiadiazol-2-yl)phenyl)-1-methylpyridin-2(1H)-one] | *** (a pIC50 value between 6.5 and 7.0 is indicated by three stars (***)) | 6.819 | 6.6665 |
| COc1ccnc2cc(-c3ccc(N(C)C4CC(C)(C)NC(C)(C)C4)nn3)c(O)cc12 [Compound 50, 4-methoxy-7-(6-(methyl(2,2,6,6-tetramethylpiperidin-4-yl)amino)pyridazin-3-yl)quinolin-6-ol] | *** (a pIC50 value between 6.5 and 7.0 is indicated by three stars (***)) | 6.8055 | 6.7835 |
| CN(c1ccc(-c2cc3c(C(N)=O)nccc3cc2O)nn1)C1CC(C)(C)NC(C)(C)C1 [Compound 51, 6-hydroxy-7-(6-(methyl(2,2,6,6-tetramethylpiperidin-4-yl)amino)pyridazin-3-yl)isoquinoline-1-carboxamide] | *** (a pIC50 value between 6.5 and 7.0 is indicated by three stars (***)) | 6.801 | 6.779 |
| CN(c1ccc(-c2cc3ccncc3cc2O)nn1)C1CC(C)(C)NC(C)(C)C1 [Compound 52, 6-(6-(methyl(2,2,6,6-tetramethylpiperidin-4-yl)amino)pyridazin-3-yl)isoquinolin-7-ol] | *** (a pIC50 value between 6.5 and 7.0 is indicated by three stars (***)) | 6.7625 | 6.6455 |
| Cc1cc(C2CC2)c2cc(-c3ccc(N(C)C4CC(C)(C)NC(C)(C)C4)nn3)c(O)cc2n1 [Compound 53, 4-cyclopropyl-2-methyl-6-(6-(methyl(2,2,6,6-tetramethylpiperidin-4-yl)amino)pyridazin-3-yl)quinolin-7-ol] | *** (a pIC50 value between 6.5 and 7.0 is indicated by three stars (***)) | 6.746 | 6.7095 |
| Cc1nc2cc(-c3ccc(N(C)C4CC(C)(C)NC(C)(C)C4)nn3)c(O)cc2[nH]1 [Compound 54, 2-methyl-5-(6-(methyl(2,2,6,6-tetramethylpiperidin-4-yl)amino)pyridazin-3-yl)-1H-benzo[d]imidazol-6-ol] | *** (a pIC50 value between 6.5 and 7.0 is indicated by three stars (***)) | 6.728 | 6.753 |
| CN(c1ccc(-c2cc3c(=O)nc[nH]c3cc2O)nn1)C1CC(C)(C)NC(C)(C)C1 [Compound 55, 7-hydroxy-6-(6-(methyl(2,2,6,6-tetramethylpiperidin-4-yl)amino)pyridazin-3-yl)quinazolin-4(1H)-one] | *** (a pIC50 value between 6.5 and 7.0 is indicated by three stars (***)) | 6.71 | 6.7485 |
| CCc1cnc2cc(O)c(-c3ccc(N(C)C4CC(C)(C)NC(C)(C)C4)nn3)cc2c1 [Compound 56, 3-ethyl-6-(6-(methyl(2,2,6,6-tetramethylpiperidin-4-yl)amino)pyridazin-3-yl)quinolin-7-ol] | *** (a pIC50 value between 6.5 and 7.0 is indicated by three stars (***)) | 6.709 | 6.709 |
| COc1ccc2cc(-c3ccc(N(C)C4CC(C)(C)NC(C)(C)C4)nn3)c(O)cc2c1 [Compound 57, 7-methoxy-3-(6-(methyl(2,2,6,6-tetramethylpiperidin-4-yl)amino)pyridazin-3-yl)naphthalen-2-ol] | *** (a pIC50 value between 6.5 and 7.0 is indicated by three stars (***)) | 6.7085 | 6.791 |
| COc1cc(-c2cn[nH]c2)cc(O)c1-c1ccc(N(C)C2CC(C)(C)NC(C)(C)C2)nn1 [Compound 58, 3-methoxy-2-(6-(methyl(2,2,6,6-tetramethylpiperidin-4-yl)amino)pyridazin-3-yl)-5-(1H-pyrazol-4-yl)phenol] | *** (a pIC50 value between 6.5 and 7.0 is indicated by three stars (***)) | 6.698 | 6.6555 |
| Cc1nc(-c2ccc(-c3ccc(N(C)C4CC(C)(C)NC(C)(C)C4)nn3)c(O)c2)c[nH]1 [Compound 59, 2-(6-(methyl(2,2,6,6-tetramethylpiperidin-4-yl)amino)pyridazin-3-yl)-5-(2-methyl-1H-imidazol-4-yl)phenol] | *** (a pIC50 value between 6.5 and 7.0 is indicated by three stars (***)) | 6.678 | 6.5065 |
| Cc1ncc2cc(-c3ccc(N(C)C4CC(C)(C)NC(C)(C)C4)nn3)c(O)cc2n1 [Compound 60, 2-methyl-6-(6-(methyl(2,2,6,6-tetramethylpiperidin-4-yl)amino)pyridazin-3-yl)quinazolin-7-ol] | *** (a pIC50 value between 6.5 and 7.0 is indicated by three stars (***)) | 6.6725 | 6.7 |
| CN(c1ccc(-c2ccc(C3=CCNCC3)cc2O)nn1)C1CC(C)(C)NC(C)(C)C1 [Compound 61, 2-(6-(methyl(2,2,6,6-tetramethylpiperidin-4-yl)amino)pyridazin-3-yl)-5-(1,2,3,6-tetrahydropyridin-4-yl)phenol] | *** (a pIC50 value between 6.5 and 7.0 is indicated by three stars (***)) | 6.661 | 6.659 |
| COc1cc(-c2sc(C)nc2C)ccc1-c1nnc(N(C)C2CC(C)(C)NC(C)(C)C2)s1 [Compound 62, 5-(4-(2,4-dimethylthiazol-5-yl)-2-methoxyphenyl)-N-methyl-N-(2,2,6,6-tetramethylpiperidin-4-yl)-1,3,4-thiadiazol-2-amine] | *** (a pIC50 value between 6.5 and 7.0 is indicated by three stars (***)) | 6.6555 | 6.6405 |
| CCOc1cc(C)nc2cc(O)c(-c3ccc(N(C)C4CC(C)(C)NC(C)(C)C4)nn3)cc12 [Compound 63, 4-ethoxy-2-methyl-6-(6-(methyl(2,2,6,6-tetramethylpiperidin-4-yl)amino)pyridazin-3-yl)quinolin-7-ol] | *** (a pIC50 value between 6.5 and 7.0 is indicated by three stars (***)) | 6.63 | 6.534 |
| CN(c1ccc(-c2cc3ccc(C#N)nc3cc2O)nn1)C1CC(C)(C)NC(C)(C)C1 [Compound 64, 7-hydroxy-6-(6-(methyl(2,2,6,6-tetramethylpiperidin-4-yl)amino)pyridazin-3-yl)quinoline-2-carbonitrile] | *** (a pIC50 value between 6.5 and 7.0 is indicated by three stars (***)) | 6.5945 | 6.5885 |
| COc1cc(-c2cn[nH]c2)c(F)c(F)c1-c1nnc(N(C)C2CC(C)(C)NC(C)(C)C2)s1 [Compound 65, 5-(2,3-difluoro-6-methoxy-4-(1H-pyrazol-4-yl)phenyl)-N-methyl-N-(2,2,6,6-tetramethylpiperidin-4-yl)-1,3,4-thiadiazol-2-amine] | *** (a pIC50 value between 6.5 and 7.0 is indicated by three stars (***)) | 6.5865 | 6.5835 |
| CN(c1ccc(-c2cc3c(cc2O)C(=O)CC3)nn1)C1CC(C)(C)NC(C)(C)C1 [Compound 66, 6-hydroxy-5-(6-(methyl(2,2,6,6-tetramethylpiperidin-4-yl)amino)pyridazin-3-yl)-2,3-dihydro-1H-inden-1-one] | *** (a pIC50 value between 6.5 and 7.0 is indicated by three stars (***)) | 6.5815 | 6.637 |

From US20240216369A1, “THE USE OF A SPLICING MODULATOR FOR A TREATMENT SLOWING PROGRESSION OF HUNTINGTON'S DISEASE” (Novartis AG, priority 2019, published 2024)
